According to patent US20100267561A1, “HERBICIDAL PYRIDAZINONE DERIVATIVES” (priority 2007, published 2010):

Experiments:
Assay in all cases: Test B pre-/postemergence plant response
Format in all cases: in vivo
[1] = test system: bermudagrass (Cynodon dactylon)
In short: (§1)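 Visual scoring from 0 (no effect) to 100 (complete control) against untreated controls was done 13 to 15 days after greenhouse treatment. Chemicals were formulated in a surfactant-containing non-phytotoxic solvent and applied to soil preemergence or to 1- to 4-leaf (2-18 cm) plants postemergence.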

[2] = test system: cocklebur (Xanthium strumarium)
In short: as §1

corn (Zea mays) = test system: corn (Zea mays)
In short: as §1

[3] = test system: giant foxtail (Setaria faberii)
In short: as §1

[4] = test system: goosegrass (Eleusine indica)
In short: as §1

[5] = test system: green foxtail (Setaria viridis)
In short: as §1

kochia (Kochia scoparia) = test system: kochia (Kochia scoparia)
In short: as §1

[6] = test system: lambsquarters (Chenopodium album); conditions: Postemergence
In short: as §1

soybean (Glycine max) = test system: soybean (Glycine max)
In short: as §1

[7] = test system: velvetleaf (Abutilon theophrasti)
In short: as §1

[8] = test system: wheat (Triticum aestivum)
In short: as §1

[9] = test system: woolly cupgrass (Eriochloa villosa)
In short: as §1

[10] = test system: yellow nutsedge (Cyperus esculentus)
In short: as §1

[11] = Postemergence, 31 g ai/ha, scale 0 to 100, 0 no effect, 100 complete control
[12] = Postemergence, 62 g ai/ha, scale 0 to 100
[13] = Postemergence, 125 g ai/ha, scale 0 to 100
[14] = Postemergence, 250 g ai/ha, scale 0 to 100
[15] = Preemergence, 31 g ai/ha, 0 to 100 scale, 0 no effect, 100 complete control
[16] = Preemergence, 62 g ai/ha, scale 0 to 100
[17] = Preemergence, 125 g ai/ha, scale 0 to 100
[18] = Preemergence, 250 g ai/ha, scale 0 to 100

4-[3-(4-chlorophenyl)-5-methyl-1H-pyrazol-3-yl]-5-hydroxy-2-methyl-3(2H)-pyridazinone [Compound 3]
Bermudagrass plant response rating ([1]; 250 g ai/ha, preemergence, 0-100 scale): 100 | Plant response rating, Bermudagrass [1, 11]: 100 | Plant response rating, Bermudagrass [1, 12]: 100 | Plant response rating, Bermudagrass [1, 13]: 100 | Plant response rating, Bermudagrass [1, 14]: 100 | Plant response rating, Bermudagrass [1, 15]: 30 | Plant response rating, Bermudagrass [1, 16]: 100 | Plant response rating, Bermudagrass [1, 17]: 100 | Plant response rating, Cocklebur [2, 11]: 0 | Plant response rating, Cocklebur [2, 12]: 0 | Plant response rating, Cocklebur [2, 13]: 0 | Plant response rating, Cocklebur [2, 14]: 0 | Plant response rating, Cocklebur [2, 15]: 0 | Plant response rating, Cocklebur [2, 16]: 0 | Plant response rating, Cocklebur [2, 18]: 0 | Plant response rating, Corn (corn (Zea mays); [11]): 100 | Plant response rating, Corn (corn (Zea mays); [12]): 100 | Plant response rating, Corn (corn (Zea mays); [13]): 100 | Plant response rating, Corn (corn (Zea mays); [14]): 100 | Plant response rating, Corn (corn (Zea mays); [15]): 95 | Plant response rating, Corn (corn (Zea mays); [16]): 95 | Plant response rating, Corn (corn (Zea mays); [17]): 95 | Plant response rating, Corn (corn (Zea mays); [18]): 98 | Plant response rating, Foxtail, Giant [3, 11]: 100 | Plant response rating, Foxtail, Giant [3, 12]: 100 | Plant response rating, Foxtail, Giant [3, 13]: 100 | Plant response rating, Foxtail, Giant [3, 14]: 100 | Plant response rating, Foxtail, Giant [3, 15]: 98 | Plant response rating, Foxtail, Giant [3, 16]: 98 | Plant response rating, Foxtail, Giant [3, 17]: 100 | Plant response rating, Foxtail, Giant [3, 18]: 100 | Plant response rating, Goosegrass [4, 11]: 95 | Plant response rating, Goosegrass [4, 12]: 95 | Plant response rating, Goosegrass [4, 13]: 100 | Plant response rating, Goosegrass [4, 14]: 100 | Plant response rating, Goosegrass [4, 15]: 80 | Plant response rating, Goosegrass [4, 16]: 85 | Plant response rating, Goosegrass [4, 17]: 85 | Plant response rating, Goosegrass [4, 18]: 100 | Plant response rating, Foxtail, Green [5, 11]: 90 | Plant response rating, Foxtail, Green [5, 12]: 100 | Plant response rating, Foxtail, Green [5, 13]: 100 | Plant response rating, Foxtail, Green [5, 14]: 100 | Plant response rating, Foxtail, Green [5, 15]: 100 | Plant response rating, Foxtail, Green [5, 16]: 100 | Plant response rating, Foxtail, Green [5, 17]: 100 | Plant response rating, Foxtail, Green [5, 18]: 100 | Plant response rating, Kochia (kochia (Kochia scoparia); [11]): 0 | Plant response rating, Kochia (kochia (Kochia scoparia); [12]): 0 | Plant response rating, Kochia (kochia (Kochia scoparia); [13]): 60 | Plant response rating, Kochia (kochia (Kochia scoparia); [14]): 70 | Plant response rating, Kochia (kochia (Kochia scoparia); [15]): 0 | Plant response rating, Kochia (kochia (Kochia scoparia); [17]): 30 | Plant response rating, Kochia (kochia (Kochia scoparia); [18]): 30 | Plant response rating, Lambsquarters ([6]; 31 g ai/ha, scale 0 to 100, 0 no effect, 100 complete control): 0 | Plant response rating, Lambsquarters ([6]; 62 g ai/ha, scale 0 to 100): 0 | Plant response rating, Lambsquarters ([6]; 125 g ai/ha, scale 0 to 100): 15 | Plant response rating, Lambsquarters ([6]; 250 g ai/ha, scale 0 to 100): 20 | Plant response rating, Soybean (soybean (Glycine max); [11]): 0 | Plant response rating, Soybean (soybean (Glycine max); [12]): 40 | Plant response rating, Soybean (soybean (Glycine max); [13]): 40 | Plant response rating, Soybean (soybean (Glycine max); [14]): 60 | Plant response rating, Soybean (soybean (Glycine max); [15]): 0 | Plant response rating, Soybean (soybean (Glycine max); [16]): 0 | Plant response rating, Soybean (soybean (Glycine max); [17]): 0 | Plant response rating, Soybean (soybean (Glycine max); [18]): 0 | Plant response rating, Velvetleaf [7, 11]: 0 | Plant response rating, Velvetleaf [7, 12]: 0 | Plant response rating, Velvetleaf [7, 13]: 0 | Plant response rating, Velvetleaf [7, 14]: 0 | Plant response rating, Velvetleaf [7, 15]: 0 | Plant response rating, Velvetleaf [7, 16]: 0 | Plant response rating, Velvetleaf [7, 17]: 0 | Plant response rating, Velvetleaf [7, 18]: 20 | Plant response rating, Wheat [8, 11]: 80 | Plant response rating, Wheat [8, 12]: 90 | Plant response rating, Wheat [8, 13]: 100 | Plant response rating, Wheat [8, 14]: 100 | Plant response rating, Wheat [8, 15]: 45 | Plant response rating, Wheat [8, 16]: 75 | Plant response rating, Wheat [8, 17]: 95 | Plant response rating, Wheat [8, 18]: 98 | Plant response rating, Cupgrass, Woolly [9, 11]: 100 | Plant response rating, Cupgrass, Woolly [9, 12]: 100 | Plant response rating, Cupgrass, Woolly [9, 13]: 100 | Plant response rating, Cupgrass, Woolly [9, 14]: 100 | Plant response rating, Cupgrass, Woolly [9, 15]: 50 | Plant response rating, Cupgrass, Woolly [9, 16]: 50 | Plant response rating, Cupgrass, Woolly [9, 17]: 90 | Plant response rating, Cupgrass, Woolly [9, 18]: 100 | Plant response rating, Nutsedge, Yellow [10, 11]: 0 | Plant response rating, Nutsedge, Yellow [10, 12]: 0 | Plant response rating, Nutsedge, Yellow [10, 13]: 0 | Plant response rating, Nutsedge, Yellow [10, 14]: 0 | Plant response rating, Nutsedge, Yellow [10, 15]: 0 | Plant response rating, Nutsedge, Yellow [10, 16]: 0 | Plant response rating, Nutsedge, Yellow [10, 17]: 0 | Plant response rating, Nutsedge, Yellow [10, 18]: 0
